Converted amounts (≈) assume the structure as drawn. Where two headings read alike, the source gives them in different places.
How the values were obtained:
NL4(P37-538) = experiment: Viral isolate resistance assay per Markowitz et al., NL4(P37-538); format: cell-based, HIV-1
Source text: (§1) RF represents the HIV-1 strain HIV-LRF and RFR represents a mixture of resistant strains obtained by selection of RF against the compound of Example 1. RFR comprises a mixture of viral strains having protease genotypes of G48V (14/40 clones); G48V, V82A (18/40 clones); G48V, L90S (2/40 clones); G48V, 154T, V82A (1/40 clones); G48M (1/40 clones); G48V, Q61H (1/40 clones); V13I, G48V (1/40 clones); G48V, F53L, V82A (1/40 clones); and G48V, V82A, C95Y (1/40 clones). RFR2 represents a mixture of resistant strains obtained by cloning RFR by three rounds of growth at limiting dilution. RFR2 comprises a mixture of viral strains having protease genotypes of G48V, V82A (13/15 clones); G17E, G48V, V82A (1/15 clones); and G48V, V82A, N37D, N88D (1/15 clones). RFRR represents a mixture of resistant strains obtained by selection of RF against the compounds of Examples 1 and 2 and then cloning by three rounds of growth at limiting dilution. RFRR comprises a mixture of viral strains having protease genotypes of G48V, 154T, L63P, V82A (7/9 clones); G48V, 154T, L63P, V82A, N88S (1/9 clones); and G48V, 154T, L63P, G73M, V82A (1/9 clones). SF162 represents the HIV-1 strain SF-162 and SF162R represents a mixture of resistant strains obtained by selection of SF162 against the compound of Example 1. SF162R comprises a mixture of viral strains having protease genotypes of M461, F53L, L63P, A71V, N88D (2/3 clones); and M46I, F53L, L63P, A71V, N88D, Q92R (1/3 clones). 89-959 represents the HIV-1 strain 89-959 and 89-959R represents a mixture of resistant strains obtained by selection of 89-959 against the compound of Example 2. 89-959R comprises a mixture of viral strains having protease genotypes of N88S (4/5 clones); and D25N, T26A, D30N, D37N, R41K, G73D, R87K, N88S (1/4 clones). NL4 represents the HIV-1 strain HIV-1NL4-3. NL4(G48V) represents a strain having a synthetically generated site-directed mutation in the protease from glycine to valine at amino acid position number 48. NL4(I84V) represents a strain having a synthetically generated site-directed mutation in the protease from isoleucine to valine at amino acid position number 84. NL4(R8Q,M46I) represents a strain having synthetically generated site-directed mutations in the protease from arginine to glutamine at amino acid position number 8 and methionine to isoleucine at amino acid position number 46. NL4(P22-538) represents a mixture of resistant strains obtained by selection of HIV-1NL4-3 against the compound of Example 10 after 22 passages comprising protease genotypes M46I, L63P, A71V, V82F, I84V (4/10); M46I, L63P, V82F, I84V (3/10); and M46I, A71V, V82F, I84V (3/10). NL4(P37-538) represents resistant strains obtained by selection of HIV-1NL4-3 against the compound of Example 10 after 37 passages comprising protease genotype M46I, L63P, A71V, 184A. NL4(538/524) represents resistant strains obtained by selection of NL4(P22-538) against the compound of Example 5 after 24 passages comprising protease genotype M46I, L63P, A71V, 184A. NL4(538/P7-AG) represents a mixture of resistant strains obtained by selection of NL4(P22-538) against the compound of Example 12 after 7 passages comprising protease genotypes M46I, L63P, A71V, 184A; and V321, V82I. NL4(538/P24-AG) represents resistant strains obtained by selection of NL4(P22-538) against the compound of Example 12 after 24 passages comprising protease genotype M46I, L63P, A71V, 184A. NLA(P19-003) represents resistant strains obtained by selection of HIV-1^NL4-3 against the compound of Example 9 after 19 passages comprising protease genotype R8K, M46I. NL4(P34-003) represents resistant strains obtained by selection of HIV-1^NL4-3 against the compound of Example 9 after 34 passages comprising protease genotype R8K, M46I, L63P, A71V, L90M.
The viral isolate resistance results summarized in Tables 7-11 were generated according to the assay procedures described by Markowitz et al., Journal of Virology, vol. […]

NL4(I84V) = experiment: Viral isolate resistance assay per Markowitz et al., NL4(I84V); format: cell-based, HIV-1; conditions: Human immunodeficiency virus 1, Table 7
Source text: (§2) RF represents the HIV-1 strain HIV-LRF and RFR represents a mixture of resistant strains obtained by selection of RF against the compound of Example 1. […] RFR2 represents a mixture of resistant strains obtained by cloning RFR by three rounds of growth at limiting dilution. […] RFRR represents a mixture of resistant strains obtained by selection of RF against the compounds of Examples 1 and 2 and then cloning by three rounds of growth at limiting dilution. […] SF162 represents the HIV-1 strain SF-162 and SF162R represents a mixture of resistant strains obtained by selection of SF162 against the compound of Example 1. […] 89-959 represents the HIV-1 strain 89-959 and 89-959R represents a mixture of resistant strains obtained by selection of 89-959 against the compound of Example 2. […] NL4 represents the HIV-1 strain HIV-1NL4-3. NL4(G48V) represents a strain having a synthetically generated site-directed mutation in the protease from glycine to valine at amino acid position number 48. NL4(I84V) represents a strain having a synthetically generated site-directed mutation in the protease from isoleucine to valine at amino acid position number 84. NL4(R8Q,M46I) represents a strain having synthetically generated site-directed mutations in the protease from arginine to glutamine at amino acid position number 8 and methionine to isoleucine at amino acid position number 46.

[1] = test system: RFRR (resistant strains selected from RF against Examples 1 and 2); experiment: CEM-T4 cell infection assay, reverse transcriptase readout, resistant isolate RFRR; format: cell-based, HIV-1; conditions: Human immunodeficiency virus 1, 168 h, Table 6, CEM-T4 cells, 7 days, read-out: Virus Isolate (EC50 ng/mL) RFRR
Source text: as §1
(§3) The viral isolate resistance results summarized in Tables 4-6 were generated according to the following assay procedure or minor modifications thereof. Assays are performed in 96-well tissue culture plates. […]

HIV-1RF = experiment: CEM-T4 cell infection assay, reverse transcriptase readout, isolate RF; format: cell-based; conditions: Human immunodeficiency virus 1, CEM-T4, 168 h, 7 days, read-out: Virus Isolate (EC50 ng/mL) RF
Source text: as §1, §3

HIV-1NL4-3 = experiment: microbe, parasite or virus in culture; format: cell-based; conditions: Human immunodeficiency virus 1, NL4; for EC90: Table 7, read-out: Virus Isolate (EC90 nM) NL4; for EC50: read-out: Virus Isolate (EC50 nM) NL4
Source text: as §2

[2] = test system: RFR2 (RFR cloned by three rounds of limiting dilution); experiment: CEM-T4 cell infection assay, reverse transcriptase readout, resistant isolate RFR2; format: cell-based, HIV-1; conditions: Human immunodeficiency virus 1, 168 h, Table 6, CEM-T4 cells, 7 days, read-out: Virus Isolate (EC50 ng/mL) RFR2
Source text: as §1, §3

[3] = test system: RFR (resistant strains selected from RF against Example 1); experiment: CEM-T4 cell infection assay, reverse transcriptase readout, resistant isolate RFR; format: cell-based, HIV-1; conditions: Human immunodeficiency virus 1, CEM-T4, 168 h, Table 4, CEM-T4 cells, 7 days, read-out: Virus Isolate (EC50 ng/mL) RFR
Source text: as §1, §3

NL4(538/P7-AG) = experiment: Viral isolate resistance assay per Markowitz et al., NL4(538/P7-AG); format: cell-based, HIV-1; conditions: Human immunodeficiency virus 1; Table 10; NL4(P22-538) selected against Example 12, 7 passages
Source text: as §1, with “NLA(P19-003) represents resistant strains obtained by selection of HIV-1^NL4-3 against the compound of Example 9 after 19 passages comprising protease genotype R8K, M46I. NL4(P34-003) represents resistant strains obtained by selection of HIV-1^NL4-3 against the compound of Example 9 after 34 passages comprising protease genotype R8K, M46I, L63P, A71V, L90M.” left out

NL4(538/P24-AG) = experiment: Viral isolate resistance assay per Markowitz et al., NL4(538/P24-AG); format: cell-based, HIV-1; conditions: Human immunodeficiency virus 1; Table 10; NL4(P22-538) selected against Example 12, 24 passages
Source text: as §1, with “NLA(P19-003) represents resistant strains obtained by selection of HIV-1^NL4-3 against the compound of Example 9 after 19 passages comprising protease genotype R8K, M46I. NL4(P34-003) represents resistant strains obtained by selection of HIV-1^NL4-3 against the compound of Example 9 after 34 passages comprising protease genotype R8K, M46I, L63P, A71V, L90M.” left out

NL4(538/524) = experiment: Viral isolate resistance assay per Markowitz et al., NL4(538/524); format: cell-based, HIV-1; conditions: Human immunodeficiency virus 1; Table 10; NL4(P22-538) selected against Example 5, 24 passages
Source text: as §1, with “NLA(P19-003) represents resistant strains obtained by selection of HIV-1^NL4-3 against the compound of Example 9 after 19 passages comprising protease genotype R8K, M46I. NL4(P34-003) represents resistant strains obtained by selection of HIV-1^NL4-3 against the compound of Example 9 after 34 passages comprising protease genotype R8K, M46I, L63P, A71V, L90M.” left out

Structure (SMILES) | EC50 (NL4(P37-538); Human immunodeficiency virus 1, read-out: Virus Isolate (EC50 nM) NL4(P37-538)) | EC90 (NL4(I84V)) | EC50 [1] | EC50 (HIV-1RF; Table 6, CEM-T4 cells) | EC90 (HIV-1NL4-3) | EC50 (HIV-1NL4-3; Table 9) | EC50 [2] | EC50 (HIV-1RF; Table 4, CEM-T4 cells) | EC50 [3] | EC50 (NL4(538/P7-AG)) | EC50 (NL4(P37-538); Human immunodeficiency virus 1, Table 9, selected against Example 10, 37 passages, read-out: Virus Isolate (EC50 nM) NL4(P37-538)) | EC50 (NL4(538/P24-AG)) | EC50 (HIV-1NL4-3; Table 8) | EC50 (NL4(538/524))
CC(C)CN(C[C@@H](O)[C@H](Cc1ccccc1)NC(=O)[C@@H](NC(=O)CN1CCCC1)C(C)(C)C)S(=O)(=O)c1ccc2c(c1)OCO2 [Example 14, N-[2R-hydroxy-3-[[(1,3-benzodioxol-5-yl)sulfonyl](2-methylpropyl)amino]-1S-(phenylmethyl)propyl]-2S-[[(pyrrolidin-1-yl)acetyl]amino]-3,3-dimethylbutanamide] | 1000 nM | 72 nM | 39 ng/mL (≈ 60.5 nM) | 1 ng/mL (≈ 1.55 nM) | 8 nM | 60 nM | 6 ng/mL (≈ 9.3 nM) |  |  |  |  |  |  | 
COc1ccc(S(=O)(=O)N(CC(C)C)C[C@@H](O)[C@H](Cc2ccccc2)NC(=O)[C@H](C)CS(C)(=O)=O)cc1 (relative stereo) [Example 4, [1S-[1R*(R*),2S*]]-N-[2-hydroxy-3-[N^1-(2-methylpropyl)-N-(4-methoxyphenylsulfonyl)amino]-1-(phenylmethyl)propyl]-2-methyl-3-(methylsulfonyl)propanamide] |  |  |  |  |  |  |  | 10 ng/mL (≈ 18 nM) | 0.4 ng/mL (≈ 0.721 nM) |  |  |  |  | 
CNCC(=O)N[C@H](C(=O)N[C@@H](Cc1ccccc1)[C@H](O)CN(CC(C)C)S(=O)(=O)c1ccc2c(c1)OCO2)C(C)(C)C [Example 16, 2S-[[(N-methylamino)acetyl]amino]-N-[2R-hydroxy-3-[[(1,3-benzodioxol-5-yl)sulfonyl](2-methylpropyl)amino]-1S-(phenylmethyl)propyl]-3.3-dimethylbutanamide] |  |  | 9 ng/mL (≈ 14.9 nM) | 3 ng/mL (≈ 4.96 nM) | 8 nM |  | 1 ng/mL (≈ 1.65 nM) |  |  | 40 nM | 40 nM | 40 nM | 8 nM | 40 nM

Reference: US20030207813A1, “Retroviral protease inhibitor combinations” (priority 1995, published 2003)
